By LC50 is commonly meant the concentration that kills 50% of the test population.

In brackets after ≈: the same amount, converted by molar mass. Like-named read-outs stand apart in the source and are kept apart here.

The source of these data is patent publication US20190116795A1, “USE OF TENVERMECTIN IN CONTROL OF HARMFUL INSECTS IN AGRICULTURAL AND FOREST CROPS” (ZHEJIANG HISUN PHARMACEUTICAL CO., LTD., priority 2016, published 2019).

Data set [1] deals with Frankliniella occidentalis Pergande imagoes. Briefly: Indoor toxicity against Frankliniella occidentalis Pergande imagoes, impregnation method. It is filed as in vivo. The note with it: for LC50: Frankliniella occidentalis Pergande imagoes, impregnation, 48 hours after medication, 26 °C; for Relative toxicity: maximum LC50 divided by LC50 of each agent, imidacloprid = 1. The source says:
The impregnation method was used. […] The quantitative Frankliniella occidentalis Pergande (15-20 heads) in the suction trap were flicked into the solution in the insect box, and the solution was gently stirred with a glass rod for 10 seconds, and the insect box was quickly removed from the solution, and when the solution was drained out from the insect box, the residual solution on the copper net was blotted with absorbent paper from the bottom of the insect box, and then a 3 cm long kidney bean slice (Frankliniella occidentalis Pergande feed) was put into the insect box, and finally the insect box was sealed with a parafilm. […] The sealed insect box was placed in a HPG280H light incubator under a temperature of 26° C. and a humidity of 70%.

Another data set has as its system zebrafish. Description: Toxicity test on zebrafish, semi-static method. Type of data set: in vivo, Brachydanio rerio. How it is done: Test fish and water: zebrafish (Brachydanio rerio) were purchased from Zhejiang Academy of Agricultural Sciences and were of uniform size with an average body length of 2-3 cm and an average body weight of 0.3 g. They were domesticated for 7 days indoors before the test. The natural mortality rate was zero. Feeding was stopped 1 day before the test and the fish were not fed during the test. The test water was tap water after removing residual chlorine by exposure to the sun for more than 24 hours, and the pH was 6.8.
The sample was formulated into 50 mg/ml mother liquor with DMF.
Method: Semi-static method. Three level differences were set for each sample:
0.5 ppm, 1.0 ppm and 2.0 ppm, and three sets of parallels were set for each level difference, 10 zebrafish were raised for each group, and blank controls (one group without agents and one group with only solvent) were set. The corresponding volume of mother liquor was taken according to the concentration as required for each sample, and the volume of each sample was adjusted to 150 μl with DMF, and then each sample was added to the test group (containing 1.6 L of water). The room temperature was controlled at 22±2° C. for 96 hours, and the water was changed every 24 hours and the samples were re-added. The fish mortality rate was recorded for the first 8 hours and at 24, 48, 72, and 96 hours, and the dead fish were removed in time. Finally, the agents were divided into three grades according to the values of LC50: low-toxic pesticides with a LC50>10 ppm, middle-toxic pesticides with a LC50 of 1.0-10 ppm, and high-toxic pesticides with a LC50<1.0 ppm.

The next data set has as its system Bemisia tabaci imagoes. Briefly: Indoor toxicity against Bemisia tabaci imagoes, liquid membrane impregnation method of blades. It is filed as in vivo. The settings on record: for Relative toxicity: maximum LC50 divided by LC50 of each agent, acetamiprid = 1. As to the method:
The liquid membrane impregnation method of blades was used. […] One tomato leaf was placed in each culture dish. Three repetitions per treatment, a leaf was soaked with water, dried, and then was placed in a culture dish to be used as a control. The Bemisia tabaci imagoes were gently patted into the culture dish, about 30 to 40 imagoes in each dish. The dishes were sealed with plastic wrap, several small holes were made on the plastic wrap to facilitate ventilation. After 24 hours, the death of Bemisia tabaci imagoes was checked under a binocular microscope (the anatomical needle was used to gently touch the Bemisia tabaci imagoes, and the motionless ones were regarded to be dead). Experimental data statistics and analysis were performed with spss 19 software.

Data set [2] relates to Laodelphax striatellus imagoes. Description: whole plant or invertebrate. The note with it: for Relative toxicity: maximum LC50 divided by LC50 of each agent, imidacloprid = 1. As to the method: Each original medicine was dissolved in DMF and formulated into a 10000 mg/L solution for later use.
Test insect source: The Laodelphax striatellus imagoes were collected in the rice fields of Jiaxing, Zhejiang, and were raised indoors with rice seedlings.
The soaking seedling method was used in this test. The test agents were diluted with tap water into five series of concentrations on the basis of pre-test to be used as test solutions. Specifically, lambda-cyhalothrin and imidacloprid were diluted to 5 mg/L, 10 mg/L, 25 mg/L, 50 mg/L and 100 mg/L; abamectin was diluted to 0.25 mg/L, 0.5 Mg/L, 1.0 mg/L, 2.5 mg/L and 5.0 mg/L; tenvermectin A was diluted to 0.05 mg/L, 0.10 mg/L, 0.25 mg/L, 0.5 mg/L and 1.0 mg/L. Rice seedlings that are sown indoors for about 25 days and have no rice planthopper eggs were taken, a few rice roots were left, the seedlings were soaked in pre-formed solution for 30 seconds then they were taken out and dried, and were put into a 3 cm×20 cm test tube. There was a little water at the bottom of the tube. 2-3 rice seedlings per tube, three repetitions per treatment, and the one treated with water was used as a control. Each tube receives 40-50 heads of Laodelphax striatellus, and the tubes were sealed with black cloth and were placed in a worm room under a temperature of (26±1) ° C. After 72 hours of treatment, the number of dead insects was checked. […] Experimental data statistics and analysis were performed using spss 19 software.
The relative toxicity index of the agent having the largest LC50 was set to be 1, and the relative toxicity index of each agent was determined by dividing the maximum LC50 by the LC50 value of each agent.

The test system of data set [3] is Nilaparvata lugens imagoes. Description: Indoor toxicity against Nilaparvata lugens imagoes, soaking seedling method. It is filed as in vivo. The settings on record: for LC50: Nilaparvata lugens imagoes, soaked rice seedlings, 72 hours, 26±1 °C; for Relative toxicity: maximum LC50 divided by LC50 of each agent, imidacloprid = 1. The source says: Test insect source: the Nilaparvata lugens imagoes were collected from the rice field in Jiaxing, Zhejiang and were raised indoors with rice seedlings.
The soaking seedling method was used in this test.

In data set [4] the test system is Coptotermes formosanus Shiraki. Briefly: Indoor toxicity against Coptotermes formosanus Shiraki, topical drop with microinjector. It is filed as in vivo. The settings on record: for Relative toxicity: maximum LC50 divided by LC50 of each agent, abamectin = 1. As to the method: Specifically, abamectin was diluted to 0.01 mg/L, 0.025 mg/L, 0.05 mg/L, 0.10 mg/L and 0.25 mg/L; tenvermectin A and tenvermectin B were diluted to 0.001 mg/L, 0.0025 mg/L, 0.005 mg/L, 0.01 mg/L and 0.025 mg/L. The termites to be tested were placed in culture dishes with a diameter of 15 cm, and 20 worker ants were placed in each dish. During the test, a microinjector was used to drop 1 μI of the solution to the thorax and abdome of each termite for a total of 3 repetitions. One fungus comb was placed in each dish for termites to inhabit and a wet absorbent cotton ball was placed to moisturize. After completing dropping the solution, the culture dish was placed in a chamber under a constant temperature of 18±1° C. and a constant humidity and was cultivated in dark conditions, the death conditions were observed 24 hours and 48 hours after dropping the solution respectively. A writing brush was used to touch the various parts of the bodies of the termites and the termites that are completely immobile were judged to be dead.

The next data set deals with cabbage Phyllotreta. Description: Field efficacy test against cabbage Phyllotreta. The note with it: 1 day, 3 days and 7 days after medication. It is filed as in vivo. As to the method:
In the laboratory, the above-mentioned original medicines were respectively formulated into the following formulations for later use: 1.8% abamectin emulsifiable concentrate, 1.8% tenvermectin A emulsifiable concentrate, 1.8% tenvermectin B emulsifiable concentrate, 5% imidacloprid emulsifiable concentrate, 5% acetamiprid emulsifiable concentrate, 2.5% lambda-cyhalothrin emulsifiable concentrate.
The test was conducted in Linhai City, and the test crop was cabbage, and the object to be controlled was Phyllotreta.
The experiment consisted of 7 treatments, 3 replicates per treatment, 21 sections in total. The sections were randomly arranged, the area for each section was 66.7 m^2. A type of knapsack manual sprayer was used to spray once, the amount of each section was calculated according to the amount of 50 ml/mu, and the leaves were sprayed evenly. Each treatment was isolated from each other to avoid mutual interference. A blank control was set, and the blank control was sprayed with water. The population base of insects was investigated before medication, and the number of live insects was investigated 1 day, 3 days, and 7 days after medication, and a total of 4 investigations were conducted. 20 plants were randomly investigated per section. The rate of reduction of population was calculated and the control effect was corrected. No other pesticides were used during the test. […]

Setting [5] is: Laodelphax striatellus, in Oryza sativa, 72 h.

Regarding `CC[C@H](C)C1O[C@]2(C=C[C@@H]1C)C[C@@H]1C[C@@H](C/C=C(\C)[C@@H](O[C@H]3C[C@H](OC)[C@@H](O[C@H]4C[C@H](OC)[C@H](NC)[C@H](C)O4)[C@H](C)O3)[C@@H](C)/C=C/C=C3\CO[C@@H]4[C@H](O)C(C)=C[C@@H](C(=O)O1)[C@]34O)O2.O=C(O)c1ccccc1` (stereo partly shown) [Methylamino abamectin benzoate], in data set [1], the 50% lethal concentration (LC50) stood at 0.318 µg/mL. The same compound gave a Relative toxicity in data set [1] of 122.896. Also, the “Surviving condition (survival rate %)” value with zebrafish (0.5 ppm, 8 h) was determined as 0%; with zebrafish (1.0 ppm, 8 h) it was 0%; in the data set on zebrafish (2.0 ppm, 8 h), 0%.
As for Milbemycin, the LC50 in the data set with Bemisia tabaci imagoes (in vivo) was 0.210 µg/mL. The Relative toxicity in the data set on Bemisia tabaci imagoes was 12.100. For the same compound, the “Surviving condition (survival rate %)” value in the data set with zebrafish (0.5 ppm, 8 h) was 0%; with zebrafish (1.0 ppm, 8 h), 0%; in the data set on zebrafish (2.0 ppm, 8 h), 0%.
As to Abamectin, the median lethal concentration (LC50) in the data set with Bemisia tabaci imagoes (Bemisia tabaci imagoes, soaked tomato leaves, death checked after 24 hours) turned out to be 0.225 µg/mL; in data set [2] (Laodelphax striatellus imagoes, soaked rice seedlings, 72 hours, 26±1 °C), 3.101 µg/mL; in data set [3] it was 3.062 µg/mL; in data set [1] it was 2.648 µg/mL; in data set [4] (Coptotermes formosanus worker ants, 1 μl dropped per termite, 18±1 °C, observed 24 and 48 hours (time of LC50 not stated)) it was 0.041 µg/mL. Moreover, the Relative toxicity came to 11.293 in the data set on Bemisia tabaci imagoes; 10.260 in data set [2]; 11.063 in data set [3]; 14.759 in data set [1]; 1 in data set [4]. Moreover, the “Surviving condition (survival rate %)” value was found to be 0% in the data set with zebrafish (0.5 ppm, 8 h); 0% in the data set with zebrafish (1.0 ppm, 8 h); 0% in the data set with zebrafish (2.0 ppm, 8 h).
`O=[N+]([O-])NC1=NCCN1Cc1ccc(Cl)nc1` [Imidacloprid]: the LC50 in data set [2] (setting [5]) was determined as 31.8 µg/mL (≈ 124 µM); in data set [3] (read-out: LC50), 33.9 µg/mL (≈ 132 µM); in data set [1] (read-out: LC50), 39.1 µg/mL (≈ 153 µM). Besides, the Relative toxicity in data set [2], in data set [3] and in data set [1] was 1 in each case.
For the compound `CC[C@H]1O[C@]2(CCC1C)C[C@@H]1C[C@@H](C/C=C(\C)C(OC3C[C@H](OC)C(OC4C[C@H](OC)C(O)[C@H](C)O4)[C@H](C)O3)C(C)/C=C/C=C3\CO[C@@H]4[C@H](O)C(C)=C[C@@H](C(=O)O1)[C@]34O)O2` (stereo partly shown) [Tenvermectin B, tenvermectin B], the LC50 in data set [4] (in vivo) is 0.0066 µg/mL (≈ 0.00779 µM). Further, the Relative toxicity in data set [4] worked out at 6.21. The “Surviving condition (survival rate %)” value is 100% in the data set with zebrafish (0.5 ppm, 8 h); 70% in the data set with zebrafish (0.5 ppm, 24 h); 50% in the data set on zebrafish (0.5 ppm, 48 h); 0% in the data set on zebrafish (0.5 ppm, 72 h); 53% in the data set on zebrafish (1.0 ppm, 8 h); 0% in the data set on zebrafish (1.0 ppm, 24 h). Moreover, the “Surviving condition (survival rate %)” value turned out to be 10% with zebrafish (2.0 ppm, 8 h) and 0% in the data set on zebrafish (2.0 ppm, 24 h). Further, the “control effect on cabbage Phyllotreta (in words)” value with cabbage Phyllotreta was “no control effect”.
Turning to Ivermectin, the “Surviving condition (survival rate %)” value was determined as 0% in the data set with zebrafish (0.5 ppm, 8 h); 0% in the data set with zebrafish (1.0 ppm, 8 h); 0% with zebrafish (2.0 ppm, 8 h).
Regarding `CC1(C)[C@H](C(=O)O[C@H](C#N)c2cccc(Oc3ccccc3)c2)[C@@H]1/C=C(\Cl)C(F)(F)F` (racemic) [Lambda-cyhalothrin], the figures for the LC50 in data set [2] (setting [5]) and in data set [3] (read-out: LC50) were 12 µg/mL (≈ 26.7 µM) and 17.7 µg/mL (≈ 39.4 µM), respectively. The Relative toxicity in data set [2] is given as 2.648; in data set [3], 1.923.
On to `C/C(=N\C#N)N(C)Cc1ccc(Cl)nc1` [Acetamiprid], for which, in the data set on Bemisia tabaci imagoes (Bemisia tabaci, in Solanum lycopersicum, 24 h), the LC50 came to 2.54 µg/mL (≈ 11.4 µM). Besides, the Relative toxicity with Bemisia tabaci imagoes was determined as 1.
